Consider 2 compounds from patent publication US7230023B2, “Water-soluble triazole fungicide” (Sankyo Company, Limited, priority 2001, dated 2007).

As usually defined, the MIC is the lowest concentration that inhibits growth of the organism.

The test system of data set [1] is human liver microsome preparation. Description: Test to confirm formation of active substance: incubation with human liver microsome preparation, HPLC. The class given is in vitro ADME. The settings on record: human liver microsome preparation 0.5 mg protein/ml, initial concentration 1 μM, 37° C. The method, then:
The test compound was dissolved in a human liver microsome preparation (0.5 mg protein/ml, GENTEST Corporation) at an intial concentration of 1 μM and the mixture was incubated at 37° C.
A small aliquot of the sample was collected at certain time intervals, and the rate of persistence of the original compound and the rate of formation of compound A, the active substance with the chemical structure shown below, were determined by HPLC.
The results of incubating the compound of Example 5 (the disodium salt of example number 5-16) with the human liver microsome preparation are shown in FIG. 1.
Background: Microsomes from liver hold many membrane-bound enzymes, among them those of drug oxidation.

Data set [2] relates to Cryptococcus neoformans TIMM 0362. The data set is described as follows: Antifungal activity against Cryptococcus neoformans, MIC by broth microdilution. The class given is cell-based. Conditions: TIMM0362, yeast nitrogen base medium pH 7.0, 35° C., 48-72 hours, at least 50% growth inhibition, absorbance at 485 nm, read-out: MIC values C.n. The protocol: (§1) The antifungal activities of compound A were assessed according to the minimum inhibitory concentrations (MICs) which were measured by the methods described below:
Determination of antifungal activity against Cryptococcus neoformans: MICs were determined by the broth microdilution method. Test compound was dissolved in DMSO. Serial two-fold dilution of the test compound was performed with DMSO, and the final dilution was performed with yeast nitrogen base medium (product of Difco Laboratories) buffered to pH 7.0 with 0.165M MOPS. […] Colonies of the test fungi were suspended in physiological saline followed by adjustment to 5.0×10^3 to 2.5×10^4 cells/ml with yeast nitrogen base medium buffered to pH 7.0 with 0.165M MOPS. 100 μl of the fungal suspension and 100 μl of each diluted test compound solution were mixed in each well of microtitre plates, before incubating at 35° C. for 48-72 hours. […] The MICs were defined as the lowest compound concentrations causing at least 50% growth inhibition when compared with the control as measured by light absorbance at 485 nm.
A general note: Broth dilution looks for growth in wells or tubes with falling amounts of substance.

In data set [3] the test system is Candida albicans TIMM 3165. Description: Antifungal activity against Candida, MIC by broth microdilution. The class given is cell-based. The settings on record: TIMM3165, RPMI1640 pH 7.0, 35° C., 24-72 hours, at least 80% growth inhibition, read-out: MIC values C.a. (3). The method, then:
as §1
(§2) Determination of antifungal activity against Candida: The MICs were determined by the broth microdilution method. Test compound was dissolved in dimethyl sulfoxide (DMSO). Serial two-fold dilution of the test compound was performed with DMSO, and then the final dilution was performed with RPMI1640 medium (product of Dainippon Pharmaceutical Co., Ltd.) which was buffered to pH 7.0 with 0.165M 3-(morpholino)propanesulfonic acid (MOPS). […] Colonies of the test fungi were suspended in physiological saline followed by adjustment to 5.0×10^2 to 2.5×10^3 cells/ml with RPMI1640 medium which was buffered to pH 7.0 with 0.165M MOPS. 100 μl of the fungal suspension and 100 μl of each diluted test compound solution were mixed in each well of microtitre plates, before incubating at 35° C. for 24-72 hours. […] The MICs were defined as the lowest compound concentrations causing at least 80% growth inhibition when compared with the control.

Data set [4] deals with Candida albicans TIMM 3164. The data set is described as above. The class given is cell-based. The settings on record: TIMM3164, RPMI1640 pH 7.0, 35° C., 24-72 hours, at least 80% growth inhibition, read-out: MIC values C.a. (2). The method, then: as §1, §2
The test system of data set [5] is Candida albicans ATCC 64550. Described as above. The class given is cell-based. The settings on record: ATCC64550, RPMI1640 pH 7.0, 35° C., 24-72 hours, at least 80% growth inhibition, read-out: MIC values C.a. (1). The method, then: as §1, §2
In data set [6] the test system is Aspergillus fumigatus SANK 10569. The data set is described as follows: Antifungal activity against Aspergillus, MIC by broth microdilution. The class given is cell-based. The settings on record: SANK10569, RPMI1640 pH 7.0, 30° C., 24-72 hours, at least 80% growth inhibition, read-out: MIC values A.f. The method, then: as §1
as §2, with “Aspergillus:” for “Candida: The”, “DMSO.” for “dimethyl sulfoxide (DMSO).”, “MOPS.” for “3-(morpholino)propanesulfonic acid (MOPS).”, “about 1.0×10^4” for “5.0×10^2 to 2.5×10^3”, “30°” for “35°”

Values after ≈ are worked out from the molar mass of the structure shown.

Turning to `C[C@@H](S[C@H]1CO[C@H](/C=C/C=C/c2ccc(C#N)cc2F)OC1)[C@@](Cn1cncn1)(OC(=O)c1cc(C#N)ccc1COP(=O)([O-])[O-])c1ccc(F)cc1F.[Na+].[Na+]` [Example 5, Disodium 4-cyano-2-[[(1R,2R)-2-[[trans-2-[(1E,3E)-4-(4-cyano-2-fluorophenyl)-1,3-butadienyl]-1,3-dioxan-5-yl]thio]-1-(2,4-difluorophenyl)-1-[(1H-1,2,4-triazol-1-yl)methyl]propoxy]carbonyl]benzyl phosphate], the “rate of persistence of the original compound” value in data set [1] is given as “diminished immediately after the incubation started”. The “rate of formation of compound A (active substance)” value in data set [1] (after incubation for 30 min) was “completely converted to compound A”.
As for `C[C@@H](S[C@H]1CO[C@H](/C=C/C=C/c2ccc(C#N)cc2F)OC1)[C@](O)(Cn1cncn1)c1ccc(F)cc1F` [Compound A], the minimal inhibitory concentration (MIC) in data set [2] was not above 0.008 µg/mL; in data set [3], 0.063 µg/mL (≈ 0.116 µM); in data set [4], not above 0.008 µg/mL; in data set [5], 0.25 µg/mL (≈ 0.461 µM); in data set [6], 0.031 µg/mL (≈ 0.0571 µM).
